Patent US11285156B2, “Substituted piperazines as KRAS G12C inhibitors” (Amgen Inc., priority 2018, dated 2022)
Read-outs that look alike come from different tables or passages of the source.

Experiments:
[1] = test system: Phosphorylation of ERK1/2 in A549 cells; experiment: Phospho-ERK1/2 MSD assay in A549 cells; type: cell-based; details: read-out: p-ERK IC50 (2 h, A549; μM), 2 h compound treatment, A549 cells, EGF stimulated
Summary of the method: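 Readout: MSD phospho-ERK1/2 signal after compound (2 or 4 h) and 10 min EGF stimulation at 10 ng/mL.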

[2] = test system: Phosphorylation of ERK1/2 in MIA PaCa-2 cells; experiment: Phospho-ERK1/2 MSD assay in MIA PaCa-2 cells; type: cell-based; details: read-out: p-ERK IC50 (2 h, MiaPaCa-2; μM), 2 h compound treatment, MIA PaCa-2 cells, EGF stimulated
Summary of the method: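 Phospho-ERK1/2 measured by MSD electrochemiluminescence kit in RIPA lysates of MIA PaCa-2 cells. Cells were treated with compound titrations for 2 or 4 h at 37 °C, 5% CO2, followed by a 10 min pulse of 10 ng/mL EGF.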

[3] = target: GDP-bound KRAS protein (aa 1-169), containing both G12C and C118A amino acid substitutions (Homo sapiens (Human), UniProt P01116, C118A/G12C); experiment: Coupled nucleotide exchange assay (SOS-mediated nucleotide exchange, AlphaScreen); type: biochemical; details: 5 min compound pre-incubation; for IC50: read-out: Coupled exchange IC50 (5 min; μM)
Chain of GDP-bound KRAS protein (aa 1-169), containing both G12C and C118A amino acid substitutions (P01116 other isoform, or with tags, fused parts or gaps G12C/C118A): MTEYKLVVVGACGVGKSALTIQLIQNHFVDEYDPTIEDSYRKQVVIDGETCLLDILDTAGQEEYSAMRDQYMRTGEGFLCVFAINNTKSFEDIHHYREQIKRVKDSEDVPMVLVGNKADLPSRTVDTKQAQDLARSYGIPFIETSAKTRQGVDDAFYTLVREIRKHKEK
Method: Coupled Nucleotide Exchange Assay:
Following compound pre-incubation, purified SOS protein (aa 564-1049) and GTP (Roche 10106399001) were added to the assay wells and incubated for an additional 30 min (for 5 min compound pre-incubation) or 1 hour (for 2 hour compound pre-incubation). […] The assay plates were then read on a PerkinElmer EnVision Multilabel Reader, using AlphaScreen® technology, and data were analyzed using a 4-parameter logistic model to calculate IC50 values.

C=CC(=O)N1C[C@H](C)N(c2nc(=O)n(-c3c(C(C)C)nc(N(C)C)nc3C(C)C)c3nc(-c4ccccc4F)c(Cl)cc23)C[C@H]1C [Example 107-2, 6-Chloro-1-[2-(dimethylamino)-4,6-diisopropyl-pyrimidin-5-yl]-4-[(2S,5R)-2,5-dimethyl-4-prop-2-enoyl-piperazin-1-yl]-7-(2-fluorophenyl)pyrido [2,3-d]pyrimidin-2-one]
IC50 ([1]; Homo sapiens, A549, 2 h): 1.25 µM | IC50 ([2]; Homo sapiens, MIA PaCa-2, 2 h): 0.299 µM | IC50 [3]: 0.098 µM

C=CC(=O)N1C[C@H](C)N(c2nc(=O)n(-c3c(C(C)C)nc(N4CCOCC4)nc3C(C)C)c3nc(-c4ccccc4F)c(Cl)cc23)C[C@H]1C [Example 107-3, 6-Chloro-1-(4,6-diisopropyl-2-morpholino-pyrimidin-5-yl)-4-[(2S,5R)-2,5-dimethyl-4-prop-2-enoyl-piperazin-1-yl]-7-(2-fluorophenyl)pyrido [2,3-d]pyrimidin-2-one]
IC50 ([1]; Homo sapiens, A549, 2 h): 3.73 µM | IC50 ([2]; Homo sapiens, MIA PaCa-2, 2 h): 0.144 µM | IC50 [3]: 0.114 µM

C=CC(=O)N1C[C@H](C)N(c2nc(=O)n(-c3c(C(C)C)nc(NCCN(C)C)nc3C(C)C)c3nc(-c4ccccc4F)c(Cl)cc23)C[C@H]1C [Example 107-4, 6-Chloro-1-[2-[2-(dimethylamino)ethylamino]-4,6-diisopropyl-pyrimidin-5-yl]-4-[(2S,5R)-2,5-dimethyl-4-prop-2-enoyl-piperazin-1-yl]-7-(2-fluorophenyl)pyrido [2,3-d]pyrimidin-2-one]
IC50 ([1]; Homo sapiens, A549, 2 h): > 7.5 µM | IC50 ([2]; Homo sapiens, MIA PaCa-2, 2 h): 0.085 µM | IC50 [3]: 0.051 µM

C=CC(=O)N1C[C@H](C)N(c2nc(=O)n(-c3c(C(C)C)nc(N4CCC4)nc3C(C)C)c3nc(-c4ccccc4F)c(Cl)cc23)C[C@H]1C [Example 107-5, 1-[2-(Azetidin-1-yl)-4,6-diisopropyl-pyrimidin-5-yl]-6-chloro-4-[(2S,5R)-2,5-dimethyl-4-prop-2-enoyl-piperazin-1-yl]-7-(2-fluorophenyl)pyrido [2,3-d]pyrimidin-2-one]
IC50 ([1]; Homo sapiens, A549, 2 h): 3.25 µM | IC50 ([2]; Homo sapiens, MIA PaCa-2, 2 h): 0.3 µM | IC50 [3]: 0.103 µM

C=CC(=O)N1C[C@H](C)N(c2nc(=O)n(-c3c(C(C)C)ncnc3C3CC3)c3nc(-c4ccccc4F)c(Cl)cc23)C[C@H]1C [Example 108-1, 4-((2S,5R)-4-Acryloyl-2,5-dimethylpiperazin-1-yl)-6-chloro-1-(4-cyclopropyl-6-isopropylpyrimidin-5-yl)-7-(2-fluorophenyl)pyrido[2,3-d]pyrimidin-2(1H)-one]
IC50 ([1]; Homo sapiens, A549, 2 h): > 7.5 µM | IC50 [2]: 0.039 µM | IC50 [3]: 0.009 µM

C=CC(=O)N1C[C@H](C)N(c2nc(=O)n(-c3c(C(C)C)ncnc3C3CC3)c3nc(-c4ccccc4C)c(Cl)cc23)C[C@H]1C [Example 108-2, 6-Chloro-1-(4-cyclopropyl-6-isopropyl-pyrimidin-5-yl)-4-[(2S,5R)-2,5-dimethyl-4-prop-2-enoyl-piperazin-1-yl]-7-(o-tolyl)pyrido[2,3-d]pyrimidin-2-one]
IC50 ([1]; Homo sapiens, A549, 2 h): > 7.5 µM | IC50 [2]: 0.032 µM | IC50 [3]: 0.049 µM

C=CC(=O)N1C[C@H](C)N(c2nc(=O)n(-c3c(CC)ncnc3C(C)C)c3nc(-c4ccccc4F)c(Cl)cc23)C[C@H]1C [Example 109-1, 4-((2S,5R)-4-Acryloyl-2,5-dimethylpiperazin-1-yl)-6-chloro-1-(4-ethyl-6-isopropylpyrimidin-5-yl)-7-(2-fluorophenyl)pyrido[2,3-d]pyrimidin-2(1H)-one]
IC50 ([1]; Homo sapiens, A549, 2 h): > 7.5 µM | IC50 ([2]; Homo sapiens, MIA PaCa-2, 2 h): 0.052 µM | IC50 [3]: 0.194 µM

C=CC(=O)N1C[C@H](C)N(c2nc(=O)n(-c3c(CC)ncnc3C(C)C)c3nc(-c4ccccc4C)c(Cl)cc23)C[C@H]1C [Example 109-2, 6-Chloro-4-[(2S,5R)-2,5-dimethyl-4-prop-2-enoyl-piperazin-1-yl]-1-(4-ethyl-6-isopropyl-pyrimidin-5-yl)-7-(o-tolyl)pyrido[2,3-d]pyrimidin-2-one]
IC50 ([1]; Homo sapiens, A549, 2 h): > 7.5 µM | IC50 ([2]; Homo sapiens, MIA PaCa-2, 2 h): 0.098 µM | Coupled exchange IC50 (5 min; μM) [3]: 0.107 µM

C=CC(=O)N1C[C@H](C)N(c2nc(=O)n(CC(C)(C)C)c3nc(-c4ccccc4F)c(Cl)cc23)C[C@H]1C [Example 110-1, 4-((2S,5R)-4-Acryloyl-2,5-dimethylpiperazin-1-yl)-6-chloro-7-(2-fluorophenyl)-1-neopentylpyrido[2,3-d]pyrimidin-2(1H)-one]
IC50 ([1]; Homo sapiens, A549, 2 h): > 7.5 µM | IC50 ([2]; Homo sapiens, MIA PaCa-2, 2 h): 1.12 µM | IC50 [3]: 0.57 µM

C=CC(=O)N1C[C@H](C)N(c2nc(=O)n(-c3c(C)cc(CN(C)C)nc3C(C)C)c3nc(-c4ccccc4F)c(Cl)cc23)C[C@H]1C [Example 121-1, 4-((2S,5R)-4-Acryloyl-2,5-dimethylpiperazin-1-yl)-6-chloro-1-(6-((dimethylamino)methyl)-2-isopropyl-4-methylpyridin-3-yl)-7-(2-fluorophenyl)pyrido[2,3-d]pyrimidin-2(1H)-one]
IC50 ([1]; Homo sapiens, A549, 2 h): > 7.5 µM | IC50 ([2]; Homo sapiens, MIA PaCa-2, 2 h): 0.086 µM | IC50 [3]: 0.195 µM

C=CC(=O)N1C[C@H](C)N(c2nc(=O)n(-c3c(C)cc(CN4CCCC4)nc3C(C)C)c3nc(-c4ccccc4F)c(Cl)cc23)C[C@H]1C [Example 121-2, 6-Chloro-4-[(2S,5R)-2,5-dimethyl-4-prop-2-enoyl-piperazin-1-yl]-7-(2-fluorophenyl)-1-[2-isopropyl-4-methyl-6-(pyrrolidin-1-ylmethyl)-3-pyridyl]pyrido[2,3-d]pyrimidin-2-one]
IC50 ([1]; Homo sapiens, A549, 2 h): > 7.5 µM | IC50 ([2]; Homo sapiens, MIA PaCa-2, 2 h): 0.081 µM | IC50 [3]: 0.096 µM

C=CC(=O)N1[C@H](C)CN(c2nc(=O)n(-c3c(C(C)C)ccnc3C(C)C)c3nc(-c4ccccc4C)c(Cl)cc23)C[C@@H]1C [Example 124-11, 6-Chloro-1-(2,4-diisopropyl-3-pyridyl)-4-[(3R,5S)-3,5-dimethyl-4-prop-2-enoyl-piperazin-1-yl]-7-(o-tolyl)pyrido[2,3-d]pyrimidin-2-one]
IC50 ([1]; Homo sapiens, A549, 2 h): > 7.5 µM | IC50 ([2]; Homo sapiens, MIA PaCa-2, 2 h): 0.098 µM | IC50 [3]: 0.075 µM

C=CC(=O)N1C[C@H](C)N(c2nc(=O)n(-c3c(C(C)C)ccnc3C(C)C)c3nc(-c4ccccc4F)c(Cl)cc23)C[C@H]1C [Example 125-1, 4-((2S,5R)-4-Acryloyl-2,5-dimethylpiperazin-1-yl)-6-chloro-1-(2,4-diisopropylpyridin-3-yl)-7-(2-fluorophenyl)pyrido[2,3-d]pyrimidin-2(1H)-one]
IC50 [1]: > 7.5 µM | IC50 [2]: 0.055 µM | IC50 [3]: 0.028 µM

C=CC(=O)N1[C@H](C)CN(c2nc(=O)n(-c3c(C(C)C)ccnc3C(C)C)c3nc(-c4ccccc4C)c(Cl)cc23)C[C@@H]1C [Example 125-11, 6-Chloro-1-(2,4-diisopropyl-3-pyridyl)-4-[(3R,5S)-3,5-dimethyl-4-prop-2-enoyl-piperazin-1-yl]-7-(o-tolyl)pyrido[2,3-d]pyrimidin-2-one]
IC50 [1]: > 7.5 µM | IC50 [2]: 0.187 µM | IC50 [3]: 0.091 µM

C=CC(=O)N1C[C@H](C)N(c2nc(=O)n(-c3c(C)ccnc3C(C)C)c3nc(-c4cccc(F)c4NC(C)=O)c(Cl)cc23)C[C@H]1C [Example 129-12, N[2-(6-Chloro-4-[(2S,5R)-2,5-dimethyl-4-prop-2-enoyl-piperazin-1-yl]-1-(2-isopropyl-4-methyl-3-pvridyl)-2-oxo-pyrido[2,3-d]pyrimidin-7-yl]-6-fluoro-phenyl]acetamide]
IC50 ([1]; Homo sapiens, A549, 2 h): > 7.5 µM | IC50 ([2]; Homo sapiens, MIA PaCa-2, 2 h): 0.39 µM | IC50 [3]: 0.167 µM

C=CC(=O)N1C[C@H](C)N(c2nc(=O)n(-c3c(CN4CCCC4)ccnc3C(C)C)c3nc(-c4ccccc4C(C)C)c(Cl)cc23)C[C@H]1C [Example 141-3, 6-Chloro-4-[(2S,5R)-2,5-dimethyl-4-prop-2-enoyl-piperazin-1-yl]-7-(2-isopropylphenyl)-1-[2-isopropyl-4-(pyrrolidin-1-ylmethyl)-3-pyridyl]pyrido[2,3-d]pyrimidin-2-one]
IC50 ([1]; Homo sapiens, A549, 2 h): > 7.5 µM | IC50 ([2]; Homo sapiens, MIA PaCa-2, 2 h): 0.331 µM | IC50 [3]: 0.197 µM

C=CC(=O)N1CCN(c2nc(=O)n(CC(C)(C)C)c3nc(-c4ccccc4F)c(Cl)cc23)CC1CC#N (stereo not drawn) [Example 145-1, 2-[4-[6-Chloro-1-(2,2-dimethylpropyl)-7-(2-fluorophenyl)-2-oxo-pyrido[2,3-d]pyrimidin-4-yl]-1-prop-2-enoyl-piperazin-2-yl]acetonitrile]
IC50 ([1]; Homo sapiens, A549, 2 h): 5.75 µM | IC50 [2]: 10 µM | IC50 [3]: 2.07 µM

C=CC(=O)N1CCN(c2nc(=O)n(CC(C)(C)C)c3nc(-c4ccccc4F)c(Cl)cc23)C(CC#N)C1 (stereo not drawn) [Example 145-3, 2-[1-[6-Chloro-1-(2,2-dimethypropyl)-7-(2-fluorophenyl)-2-oxo-pyrido[2,3-d]pyrimidin-4-yl]-4-prop-2-enoyl-piperazin-2-yl]acetonitrile]
IC50 ([1]; Homo sapiens, A549, 2 h): 4.41 µM | IC50 ([2]; Homo sapiens, MIA PaCa-2, 2 h): 10 µM | IC50 [3]: 3.82 µM

C=CC(=O)N1C[C@H](C)N(c2nc(=O)n3c4nc(c(Cl)cc24)-c2ccccc2OC/C=C/Cc2ccccc2-3)C[C@H]1C [Example 146-4, 20-chloro-23-((2S,5R)-2,5-dimethyl-4-(2-propenoyl)-1-piperazinyl)-12-oxa-1,24,27-triazapentacyclo[17.6.2.0~2,7~.0~13,18~.0~22,26~]heptacosa-2,4,6,9,13,15,17,19,21,23,26-undecaen-25-one]
IC50 ([1]; Homo sapiens, A549, 2 h): > 7.5 µM | IC50 ([2]; Homo sapiens, MIA PaCa-2, 2 h): 4.19 µM | IC50 [3]: 8.13 µM
